Assays:
[1] = system: adult subjects with schizophrenia; experiment: BPRS psychosis cluster score, Clinical Study One; type: in vivo, human; conditions: Risperidone 6 mg, ITT population
Procedure: (§1) There were five treatment groups in this study. […] Study medication was administered once daily. After Baseline measurements were performed, the titration phase was begun. Bifeprunox treated subjects were titrated up to 5 mg, 10 mg or 20 mg according to a standardized titration schedule (Day 1: 0.125 mg, Day 2: 0.25 mg, Day 3: 0.5 mg, Day 4: 1.0 mg, Day 5: 2.0 mg, Day 6: 5.0 mg, Day 7: 10.0 mg, Day 8: 20 mg). When the assigned dose was reached, subjects were maintained at that dose for the remainder of the six-week treatment period.

[2] = system: adult subjects with schizophrenia; experiment: SAS, BAS and AIMS movement scales, Clinical Study Two; type: in vivo, human; conditions: Risperidone 6 mg
Procedure: Pharmacokinetic (PK) data of bifeprunox in schizophrenic subjects were also assessed and are presented in a separate report (combined with data from study S1543003).
The SAS is used to measure Parkinsonian-type symptoms in patients exposed to antipsychotics. The scale consists of 10 items, each rated on a 5-point scale ranging from 0 (complete absence of the condition) to 4 (presence of the condition in extreme form). The SAS total score is defined as the sum of all item scores, and the range is 0 to 40. A SAS total score of up to 3 is considered normal.
The BAS is used to rate observable, restless movements of drug-induced akathisia as well as the subjective awareness of restlessness and any distress associated with the akathisia. The scale consists of 3 items that is rated from 0 (no evidence of akathisia) to 3 (severe akathisia). The BAS total score is defined as the sum of the these three BAS item scores and ranges from is 0 to 9. In addition, a global clinical assessment of akathisia is rated from 0 (no evidence of akathisia) to 5 (severe akathisia).
The AIMS, designed to record the occurrence of dyskinetic movements, consists of 12 items. Items 1 to 7 measure specific involuntary movements on a scale from 0 (none) to 4 (severe). Items 8 to 10 measure global assessment of abnormal movement on a scale from 0 (no awareness) to 4 (aware, severe distress). Items 11 and 12 are questions regarding the dental condition of the patient, with yes/no answers. The total score is calculated by summing AIMS items 1 through 10 and ranges from 0 to 40; the non-global total score is calculated by summing items 1 through 7.

[3] = system: adult subjects with schizophrenia; experiment: Adverse events (TEAE, SAE, special interest, discontinuation, EPS-related TEAE), Clinical Study Three; conditions: Risperidone 6 mg
Procedure: There were four treatment arms in this study, approximately 144 subjects per arm. […] After completing the Single-Blind Placebo Lead-in Period of at least three days, bifeprunox-treated subjects were titrated from 0.25 mg up to 20 mg/day or 30 mg/day according to a standardized titration scheme over a seven- or eight-day period, respectively. When the assigned dose was reached, subjects were maintained at that dose for the remainder of the six week treatment period. […] Subjects were hospitalized (if not already inpatients) after eligibility for study entry was verified, starting from the Screening Visit until at least 10 days after Baseline. Subjects could be hospitalized longer than 10 days if considered medically necessary by the Investigator. Rating scale assessments for efficacy and abnormal movement disorders were done weekly except for Week 5. Safety assessments were performed at Screening, during treatment and at the end of the study. Subject satisfaction with study medication was assessed at Week 6. Samples of whole blood were obtained at Weeks 2, 4, and 6 for determination of bifeprunox in plasma.
EPS were assessed using treatment-emergent adverse events such as akathisia, dyskinesia, parkinsoniam, etc. and/or formal rating scales such as SAS, BAS, and/or AIMS.

[4] = system: adult subjects with schizophrenia; experiment: PANSS negative subscale score, Clinical Study One; type: in vivo, human; conditions: Risperidone 6 mg, ITT
Procedure: as §1
The change in the Positive and Negative Symptom Scale (PANSS) total score, from baseline to endpoint, was the primary outcome measure. Secondary efficacy measures included: PANSS positive, PANSS negative, PANSS general psychopathology (GPP) score, PANSS-derived Brief Psychiatric Rating Scale (BPRS) score, Clinical Global Impressions-Severity of Illness (CGI-S), CGI-Improvement (CGI-I) scores, and responder rates. Safety and tolerability evaluations included extrapyramidal symptoms (EPS), weight gain, lipid profile, and serum prolactin.

## Cc1nc2n(c(=O)c1CCN1CCC(c3noc4cc(F)ccc34)CC1)CCCC2 [Risperidone, risperidone, reference compound]
[1]; Endpoint LOCF
  Change from Baseline in BPRS Psychosis Cluster Score, Mean (S.D.): −4.1 (3.5)
  Change from Baseline in BPRS Psychosis Cluster Score, Median: −4
[1]; Week 1, LOCF
  Change from Baseline in BPRS Psychosis Cluster Score, Mean (S.D.): −2.2 (2.7)
  Change from Baseline in BPRS Psychosis Cluster Score, Median: −2
[1]; Week 2, LOCF
  Change from Baseline in BPRS Psychosis Cluster Score, Mean S.D.: −3.6 (3.2)
  Change from Baseline in BPRS Psychosis Cluster Score, Median: −3
[1]; Week 3, LOCF
  Change from Baseline in BPRS Psychosis Cluster Score, Mean (S.D.): −4.1 (3.4)
  Change from Baseline in BPRS Psychosis Cluster Score, Median: −4
[1]; Week 4, LOCF
  Change from Baseline in BPRS Psychosis Cluster Score, Mean (S.D.): −3.9 (3.3)
  Change from Baseline in BPRS Psychosis Cluster Score, Median: −4
[2]
  subjects with abnormal SAS scores at Endpoint: 14%
[3]
  AKATHISIA, %: 3%
  BALANCE DISORDER, %: 1 (<1%)
  DIZZINESS, %: 5%
  DYSARTHRIA, %: 1 (<1%)
  DYSKINESIA, %: 1 (<1%)
  EXTRAPYRAMIDAL DISORDER, %: 1%
  HEADACHE, %: 12%
  HYPOKINESIA, %: 1 (<1%)
  Hypoaesthesia, %: 1 (<1%))
  MUSCULOSKELETAL STIFFNESS, %: 1 (<1%)
  NECK PAIN, %: 1%
  NERVOUS SYSTEM DISORDERS, %: 37%
  PAIN IN EXTREMITY, %: 2%
  PARAESTHESIA, %: 1 (<1%)
  RESTLESS LEGS SYNDROME, %: 1 (<1%)
  SEDATION, %: 8%
  SOMNOLENCE, %: 9%
  SPEECH DISORDER, %: 1 (<1%)
  TREMOR, %: 3%
[4]; Endpoint LOCF
  Change from Baseline in PANSS Negative Subscale Score, Mean (S.D.): −3.6 (4.6)
  Change from Baseline in PANSS Negative Subscale Score, Median: −3
[4]; Week 1, LOCF
  Change from Baseline in PANSS Negative Subscale Score, Mean (S.D.): −2.1 (3.5)
  Change from Baseline in PANSS Negative Subscale Score, Median: −1
[4]; Week 2, LOCF
  Change from Baseline in PANSS Negative Subscale Score, Mean (S.D.): −3.0 (4.2)
  Change from Baseline in PANSS Negative Subscale Score, Median: −3
[4]; Week 3, LOCF
  Change from Baseline in PANSS Negative Subscale Score, Mean (S.D.): −3.5 (4.2)
  Change from Baseline in PANSS Negative Subscale Score, Median: −3
[4]; Week 4, LOCF
  Change from Baseline in PANSS Negative Subscale Score, Mean (S.D.): −3.2 (4.3)
  Change from Baseline in PANSS Negative Subscale Score, Median: −3

Source: patent US20090068290A1, “BIFEPRUNOX DOSES FOR TREATING SCHIZOPHRENIA” (priority 2006, published 2009)
